Paper PMC8748872, “Crystal structure and functional implication of bacterial STING” (Nature Communications, 2022)

How the values were obtained:
PcSTING = target: T1, PcSTING (Prevotella corporis, UniProt A0A133PTK7); test: crystal structure; LC-MS/MS of co-purified ligand; type: binding; details: co-purified endogenous ligand from E. coli; 2.25 A for the SeMet form
T1 construct: gene HMPREF3226_02659; C-terminal STING domain only; N-terminal His6-MBP or His6-SUMO tag removed by TEV; E. coli BL21(DE3); homodimer

[1] = target: full-length TIR-STING protein from Myroides sp. ZB35 (MyTIR-STING) (Myroides sp. ZB35); test: SEC; 16/60 Superdex 200 increase column; 20 mM Tris pH 8.0, 200 mM NaCl, 5% glycerol, 1 mM TCEP; no c-di-GMP added

T1 sequence (A0A133PTK7 entry or part of it): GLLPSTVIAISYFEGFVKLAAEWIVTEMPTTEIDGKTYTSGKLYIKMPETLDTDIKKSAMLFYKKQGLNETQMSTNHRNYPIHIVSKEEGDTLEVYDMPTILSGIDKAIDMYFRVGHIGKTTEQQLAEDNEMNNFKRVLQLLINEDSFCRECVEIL

Q: With `Nc1nc2c(ncn2[C@@H]2O[C@@H]3COP(=O)(O)O[C@H]4[C@@H](O)[C@H](n5cnc6c(=O)[nH]c(N)nc65)O[C@@H]4COP(=O)(O)O[C@H]3[C@H]2O)c(=O)[nH]1` [c-di-GMP] as the compound, how does the “crystal structure; LC-MS/MS of co-purified ligand” value (PcSTING) read?
A: The value was “PcSTING/c-di-GMP and MySTING/c-di-GMP complexes have been deposited in the Protein Data Bank”.

Q: For “full-length TIR-STING protein from Myroides sp. ZB35 (MyTIR-STING) (natural protein)”, which stoichiometry N [1] is on record?
A: Its stoichiometry N is 2.
